Experiments:
[1] = tested on: T1, thymidine phosphorylase (TP) in MDA-MB-468 cell lysates; experiment: Lysate CETSA for thymidine phosphorylase; type: binding, Human; details: 10 μM, 65 °C, n = 1
T1 construct: MDA-MB-468 lysates were treated with 10 μM each; endogenous in cells; host or cells: MDA-MB-468

MCF-7 cells = experiment: Resazurin viability assay with or without folinic acid, MCF-7; type: cell-based, Human; details: 72 h
Protocol: The incorporation and metabolism of resazurin to resorufin was used to monitor cell viability. MDA-MB-468, MCF7, and MDA-MB-231 cells were grown in 96-well plates with a total of 5000 cells per well in a total volume of 180 μL for 24 h, as described above. After 24 h of growth, cells were treated with increasing concentrations of compounds (0.0457–100 μM) for 72 h. A vehicle control was also performed. […] The volume of treatment added to each well was 20 μL. For folinic acid rescue experiments, 5000 cells were treated with 10 μM compound with or without 300 μg/mL folinic acid (Supelco). After 72 h of treatment, resazurin was added to a final concentration of 44 μM, and cells were incubated for an additional 4 h at 37 °C. The fluorescence of resorufin was monitored on a Synergy MX microplate reader (BioTek) using an excitation wavelength of 540 nm and an emission wavelength of 600 nm. Percent viability relative to the DMSO control was determined. Each treatment was performed in triplicate, and each individual experiment was repeated three times (n = 3).

Which “TP stabilization by CETSA” value [1] does the source give for `CCc1nc(N)nc(N)c1-c1ccc(Cl)cc1` [Pyr, Pyrimethamine] here?
The value was “no stabilization of TP was detected”.

What does the source list for `CC1(C)N=C(N)N=C(N)N1c1ccc(CCCCc2ccc(S(=O)(=O)F)cc2)c(Cl)c1` [compound 127159]?
Relative Viability (%) – Inhibitor + FA Treatment (MCF-7 cells; MCF-7, 10 μM + 300 μg/mL folinic acid): 99.99 ± 3.2%; Relative Viability (%) – Inhibitor Alone (MCF-7 cells; MCF-7, 10 μM, relative to DMSO): 67.68 ± 13.3%

From article PMC9961069 (Metabolites, 2023)
